Test results reported in PMC6748986, “Potent modulation of the CepR quorum sensing receptor and virulence in a Burkholderia cepacia complex member using non-native lactone ligands” (Scientific Reports, 2019).
Read-outs that look alike come from different tables or passages of the source.

What was measured:
CepR = target: T1, CepR (Burkholderia multivorans, UniProt Q93PF7); assay: CepR agonism in B. multivorans cepI::lacZ reporter (Bm-reporter); format: cell-based; conditions: for activation at 100 µM: read-out: Act%; for Emax: read-out: Maximal Activation (%)
T1 sequence (Q93PF7 1-239): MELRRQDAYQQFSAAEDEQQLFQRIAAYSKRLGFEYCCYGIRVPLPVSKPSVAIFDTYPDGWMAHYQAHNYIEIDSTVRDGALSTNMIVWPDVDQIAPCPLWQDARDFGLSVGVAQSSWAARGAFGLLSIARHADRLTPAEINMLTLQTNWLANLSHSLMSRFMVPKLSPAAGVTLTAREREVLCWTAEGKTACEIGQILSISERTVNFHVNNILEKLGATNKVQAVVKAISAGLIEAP
How it was run: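 B. multivorans cepI::lacZ cells (1:10 dilution of overnight LB culture) grown 4 h at 37 °C with compound, then β-galactosidase read with CPRG on permeabilized cells at 25 °C for ~10 min. Agonism compared against 100 μM C8-AHL; antagonism run in the presence of 5 nM C8-AHL.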

B. multivorans ATCC17616 = assay: Swimming motility assay (0.3% agar); format: cell-based; conditions: 50 μM compound, 72 h, untreated = 100%
Method: We were interested to assess the effects of our lead CepR modulators on a phenotype under the control of QS in B. multivorans. However, very little work has been reported to directly link CepR activity in B. multivorans to any QS-controlled phenotype. […] Therefore, we chose to study the effects of compound treatment on both the swarming and swimming motility of B. multivorans (B. multivorans ATCC17616; see Methods).
Figure 3 B. multivorans motility assay data. Swimming motility was measured by spotting B. multivorans plus compound indicated in the center of M9 + 0.1% casamino acids + 0.3% agar in a 10 cm diameter petri dish. Area of the colony after 72 h incubation was calculated using ImageJ, normalized to the B. multivorans wild-type + vehicle (DMSO), and listed above each plate shown. TEXT PRINTED IN THE PICTURE: C8-AHL: 182% | E32: 195% | E35: 175% | E37: 173% | DMSO: 100% | A12: 55% | B12: 53% | E3: 58%
The motility assay was based on a previously reported procedure. B. multivorans was grown overnight with 50 μM compound at 37 °C and normalized to OD600 = 0.4, and then cells were washed with sterile water and resuspended with 50 μM fresh compound. Cells (5 μL) were spotted in the center of M9 + 0.1% Casamino Acids + 0.3% agar plates (100 mm diameter). Cells were grown for 72 h at 37 °C. Images were analyzed using ImageJ to calculate the area of the colony and normalized to the area of B. multivorans wild-type + vehicle (DMSO).

Row | SMILES | EC50 (CepR; Bm-reporter, agonism dose-response, read-out: EC50) | Maximal Activation (%) (CepR; Bm-reporter, activity for 100 μM C8-AHL set to 100%, error ±10%) | Act% (CepR; Table S4, Bm-reporter, screening conc. 100 μM) | Swimming motility, area of the colony normalized to B. multivorans wild-type + vehicle (DMSO) (B. multivorans ATCC17616) | EC50 (CepR) | activation at 100 µM (CepR) | Emax (CepR) | EC50 fold lower than C8-AHL (CepR; Bm-reporter)
1 | CCCCCC(O)CC(=O)N[C@H]1CCOC1=O (stereo partly drawn) [3’OH-C8-AHL, reference compound] | ≥ 980000 pM | 78% | 78% | – | – | – | – | –
2 | CCCCCCCS(=O)(=O)N[C@H]1CCOC1=O [Compound A12] | – | – | – | 55% | – | – | – | –
3 | O=C(CC1CCCC1)N[C@H]1CCOC1=O [Compound B12] | – | – | – | 53% | – | – | – | –
4 | CCCCCCCC(=O)N[C@H]1CCOC1=O [Compound C8-AHL, N-octanoyl L-homoserine lactone, reference compound] | – | – | – | 182% | 700 pM | 100% | 100% | –
5 | O=C(Cc1cccc(C(F)(F)F)c1)N[C@H]1CCOC1=O [Compound E3] | – | – | – | 58% | – | 3.1% | – | –
6 | O=C(CCc1ccc(I)cc1)N[C@H]1CCOC1=O [Compound E32] | – | – | – | 195% | 80 pM | 110% | 110% | –
7 | O=C(CCc1ccc(C(F)(F)F)cc1)N[C@H]1CCOC1=O [Compound E35] | – | – | – | 175% | 22 pM | 98% | 98% | –
8 | O=C(CCc1ccc([N+](=O)[O-])cc1)N[C@H]1CCOC1=O [Compound E37] | – | – | – | 173% | 2.5 pM | 91% | 91% | ~ 250 fold
